Measurements taken from patent US20070203153A1, “Compositions and methods for treating thrombocytopenia” (Astellas Pharma Inc., priority 2005, published 2007).

Key:
human platelets [1] = test: platelet-increasing effect in human platelet-producing NOD/SCID mice; format: in vivo; conditions: for increase in the human platelet count: day 14
Source text: Non-obese diabetic/severe combined immunodeficiency (NOD/SCID) mice were characterized as an efficient engraftment model for human hematopoietic stem cells, as this model results in the production of human platelets. In this way, we examined the in vivo platelet-increasing effect of FORMULA X in human platelet-producing NOD/SCID mice in which human hematopoietic stem cells were transplanted.
In this study, we used commercially available cryopreserved human fetal liver CD34+ cells as a source of human hematopoietic stem cells. The cells were transplanted into sublethally irradiated (240 cGy) NOD/SCID mice. Human platelets started to appear in peripheral blood of these mice 4 weeks after transplantation. The production of human platelets continued up to six months post-transplant. […]

Ba/F3 cell = Ba/F3 cell growth (c-Mpl dependence control); format: cell-based; conditions: Ba/F3 cells without c-Mpl
[2] = tested on: G-CSF-mobilized human peripheral blood CD34+ cells; test: degree of polyploidy of G-CSF-mobilized human peripheral blood CD34+ cells after 12 days incubation; format: cell-based; conditions: compared with rhTPO-treated cells
[3] = tested on: Platelets of other species; test: signaling responses in platelets of other species (anti-phospho-STAT5 immunoblot); format: cell-based; conditions: baboon, rhesus, cynomolgus, squirrel monkey, marmoset, beagle dog, guinea pig, rabbit, hamster, rat, mouse platelets
human c-Mpl = target: T1, human c-Mpl (Homo sapiens, UniProt P40238); test: effect on TPO binding to human c-Mpl using human platelets; conditions: concentrations up to 100 microM
T1 construct: endogenous in cells; host or cells: human platelets
T1 sequence (P40238 26-635): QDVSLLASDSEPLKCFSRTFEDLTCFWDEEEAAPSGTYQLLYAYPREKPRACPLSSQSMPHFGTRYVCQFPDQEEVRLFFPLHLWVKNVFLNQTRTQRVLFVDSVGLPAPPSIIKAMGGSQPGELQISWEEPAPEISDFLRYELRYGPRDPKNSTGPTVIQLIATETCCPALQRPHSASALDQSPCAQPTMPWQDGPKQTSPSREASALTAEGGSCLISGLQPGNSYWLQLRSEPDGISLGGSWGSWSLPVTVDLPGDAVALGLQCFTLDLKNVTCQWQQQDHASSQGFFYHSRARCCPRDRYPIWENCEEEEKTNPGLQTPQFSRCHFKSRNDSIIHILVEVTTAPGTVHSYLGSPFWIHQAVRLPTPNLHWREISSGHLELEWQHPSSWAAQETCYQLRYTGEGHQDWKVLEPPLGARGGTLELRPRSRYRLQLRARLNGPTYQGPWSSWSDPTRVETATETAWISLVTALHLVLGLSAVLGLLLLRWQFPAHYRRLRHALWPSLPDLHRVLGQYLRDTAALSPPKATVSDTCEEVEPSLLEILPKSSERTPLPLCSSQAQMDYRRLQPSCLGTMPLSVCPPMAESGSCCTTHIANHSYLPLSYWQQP

[4] = tested on: human cord blood CD34+ cells; test: megakaryocyte colony formation of human cord blood CD34+ cells; format: cell-based; conditions: read-out: induction of megakaryocyte colony formation, EC50
human platelets [5] = test: activation of signaling pathways in platelets (anti-phospho-STAT5 immunoblot), human; format: cell-based
[6] = target: T2, human receptor (c-Mpl)-expressing Ba/F3 cells (Homo sapiens, UniProt P40238); test: proliferation of human c-Mpl-expressing Ba/F3 cells (c-Mpl-Ba/F3 cells); format: cell-based; conditions: read-out: proliferation in a c-Mpl-dependent manner, EC50
T2 construct: expressed in transfected cells; host or cells: Ba/F3 cells
T2 sequence (P40238 26-635): T1 sequence (P40238 26-635)
Source text: Thrombopoietin (TPO) is a 332 amino acid cytokine that is the principal physiologic regulator of platelet production. Using a high-throughput growth assay based on the proliferation of human receptor (c-Mpl)-expressing Ba/F3 cells (c-Mpl-Ba/F3 cells), the screening of a library led to the identification of a novel series of c-Mpl agonists.

[7] = tested on: G-CSF-mobilized human peripheral blood CD34+ cells; test: differentiation of human CD34+ cells into megakaryocytes, serum-free liquid culture, flow cytometry; format: cell-based; conditions: day 14
Experimental: G-SCF-mobilized human peripheral blood CD34+ cells were cultured with a combination of FORMULA X and TPO, FORMULA X, or rhTPO in a serum-free liquid culture system. The numbers of CD34+CD41− cells (hematopoietic progenitor cells), CD34+CD41+ cells (megakaryocytic progenitor cells), and CD34−CD41+ cells (megakaryocytes) were measured using flow cytometry.
For purposes of this study, the number of megakaryocytes (CD34−CD41+ cells) depicted in FIG. 1 were counted using flow cytometry. The data represents the mean±SE of 5 independent experiments. *: p<0.05, ***p<0.001 compared with 3 nM TPO using Dunnett's test.
The number of hematopoietic progenitor cells ([…]) and megakaryocytic progenitor cells (CD34+CD41+ cells: b) depicted in FIGS. 2 and 3, respectively, were counted using flow cytometry, then compared with 3 nM TPO using Dunnett's test.
On the indicated days, the numbers of hematopoietic progenitor cells ([…]), megakaryocytic progenitor cells (CD34+CD41+ cells: b), and megakaryocytes (CD34−CD41+ cells: c) depicted in FIGS. 4, 5, and 6 were counted using flow cytometry on indicated days. The data represent the mean±SE of 5 independent experiments. *: p<0.05, **p<0.01, ***p<0.001 compared with 3 nM TPO using Dunnett's tests.

murine platelets = test: murine platelet count in human platelet-producing NOD/SCID mice; format: in vivo; conditions: during the study period
Experimental: In this study, we used commercially available cryopreserved human fetal liver CD34+ cells as a source of human hematopoietic stem cells. The cells were transplanted into sublethally irradiated (240 cGy) NOD/SCID mice. Human platelets started to appear in peripheral blood of these mice 4 weeks after transplantation. The production of human platelets continued up to six months post-transplant. Various doses of FORMULA X (0, 0.3, and 3 mg/kg/day) were orally administered for 14 days to NOD/SCID mice that had been confirmed to produce human platelets stably.
The increase in the human platelet count reached about 2.7-fold at 1 mg/kg/day and about 3.0-fold at 3 mg/kg/day on day 14.

chimpanzee platelets = test: activation of signaling pathways in platelets (anti-phospho-STAT5 immunoblot), chimpanzee; format: cell-based

Compound | increase in the human platelet count (human platelets [1]; 1 mg/kg/day oral) | increase in the human platelet count (human platelets [1]; 3 mg/kg/day oral) | human platelet count after withdrawal of administration (human platelets [1]; after withdrawal) | number of human platelets (human platelets [1]; oral administration for 14 days, significance at 1 mg/kg/day and above) | effect on Ba/F3 cell growth (Ba/F3 cell) | ploidy level of cells [2] | signaling responses in platelets (anti-phospho-STAT5 immunoblot) [3] | influence on rhTPO binding to human c-Mpl (human c-Mpl) | EC50 [4] | activation of signaling pathways in platelets (human platelets [5]) | EC50 [6] | number of megakaryocytes (CD34-CD41+ cells) ([7]; agent alone (FIG. 1)) | number of megakaryocytes (CD34-CD41+ cells) ([7]; in the presence of 3 nM TPO (FIG. 1)) | number of murine platelets (murine platelets) | activation of signaling pathways in platelets (chimpanzee platelets)
O=C(Nc1nc(-c2cc(Cl)cs2)c(N2CCN(C3CCCCC3)CC2)s1)c1cnc(N2CCC(C(=O)O)CC2)c(Cl)c1 [FORMULA X] | about 2.7 fold | about 3.0 fold | return to the pretreatment level | dose-dependently increased | no effect | not different from that of cells treated with rhTPO | no signaling responses | did not influence | 25 nM | occurred only in human and chimpanzee platelets | 3.3 nM | increased the number of megakaryocytes in a dose-dependent fashion | dose-dependently increased | did not change | occurred only in human and chimpanzee platelets
TPO: 332 amino acid cytokine that is the principal physiologic regulator of platelet production |  |  |  |  |  |  | showed signaling responses |  |  |  |  | increased the number of megakaryocytes in a dose-dependent fashion |  |  | 
